Measured values taken from publication PMC10403513, “Tasmanian devil cathelicidins exhibit anticancer activity against Devil Facial Tumour Disease (DFTD) cells” (Scientific Reports, 2023).
Like-named read-outs stand apart in the source and are kept apart here. No end group written: not given here.

What was measured:
DFT1 1426 cells [1] = type: cell-based, Tasmanian devil (Sarcophilus harrisii); conditions: for effect on cell viability (in words) / cell viability (% of untreated growth control): 500 µg/mL; for effect on cell viability (in words): 12-36 h; for concentration toxic to DFT1 1426 cells: summary in the discussion; for decrease in cell viability compared to the growth control: alamarBlue, quadruplicate; for cell viability (% of untreated growth control): after 18 h, mean of quadruplicate
Method: The DFT1 cell line 1426, derived from a primary DFT1 tumour, was obtained from Menzies Institute for Medical Research, University of Tasmania. The cell line was maintained in RPMI 1640 media with 2 mM L-glutamine (Gibco) supplemented with 10% AmnioMax II (Gibco), 10% heat-inactivated foetal bovine serum (FBS) and 1% penicillin/streptomycin (Sigma-Aldrich), in T75 flasks (Nunc) at 35 °C 5% CO2. Cells were passaged using trypsin–EDTA (Sigma-Aldrich) when 90% confluent.
Toxicity of seven Tasmanian devil cathelicidins against DFT1 1426 cells was determined for twofold dilutions from 500 to 15.62 µg/mL, and four different timepoints (12, 18, 24 and 36 h). Confluent DFT1 1426 cells (passage 22) were re-suspended in RPMI 1640 with 10% FBS and 10% AmnioMax II at a concentration of 5 × 10^5 cells/mL, and 100μL seeded into each well of a sterile flat-bottom 96 well plate (Corning), with individual plates for each timepoint (12, 18, 24 and 36 h). All plates were incubated for 24 h at 35 °C 5% CO2 prior to the cytotoxicity test.
At 0 h, 100 μL of each peptide dilution was then added to each plate in quadruplicate for all timepoints (12, 18, 24 and 36 h), resulting in a final peptide concentrations of 500 μg/mL, 250 μg/mL, 125 μg/mL, 62.50 μg/mL, 31.25 μg/mL and 15.62 μg/mL. […] An untreated growth control of RPMI 1640, a positive control of dimethylsulfoxide (DMSO) (15%) and sterility control of RPMI 1640 only (no cells) were also included for each time point.
For the 12 h timepoint, 10% alamarBlue was immediately added to each well of the plate after addition of the peptide. For the remaining timepoints, plates were incubated for an additional 6, 12 or 24 h after addition of the peptides, then 10% alamarBlue added to each well. For all timepoints, after the addition of alamarBlue cells were incubated for a further 12 h, resulting in a total peptide incubation period of 12, 18, 24 and 36 h. Absorbance of alamarBlue for all timepoints was determined at 570 nm and 630 nm on a Biotek 800 TS microplate reader. Cell viability was calculated according to manufacturer’s instructions and expressed as a percentage of cell survival compared to the untreated growth control.
A one-sample, one-tailed t-test was used to test for significant difference in viability between treated cells and the negative growth control. A one sample, two-tailed t-test was also conducted to ensure there was no significant difference in viability between the negative growth control and the cells treated with the solvent only. Statistical analysis was conducted in R (R Development Core Team 2021).

DFT1 1426 cells [2] = assay: RNAseq differential gene expression in peptide-treated DFT1 1426 cells; type: cell-based, Tasmanian devil (Sarcophilus harrisii); conditions: 500 μg/mL, 10 h, n = 3, vs vehicle control; for percentage of DE genes: of 15,548 genes; for Fold change, gene IL6: cytokine; for Fold change, gene MYD88: immune signaling; for Fold change, gene RUNX1: transcription factor
Method: RNAseq was used to characterize the mechanisms underlying the anticancer activity of the peptides. Confluent DFT1 1426 cells (passage number 25) were re-suspended at a concentration of 5 × 10^5 cells/ml and 1 mL seeded into each well of a sterile flat-bottom polystyrene 12-well plate (Corning). Following incubation for 24 h at 35 °C 5% CO2, media was aspirated from the cells and replaced with 500 μL of RPMI 1640 with 2 mM L-glutamine, 10% FBS and 10% AmnioMax II. 500 μL of each 1 mg/mL peptide solution (Saha-CATH1 to 7) was then added to the plate in triplicate, to give a final peptide concentration of 500 μg/mL. […] A vehicle control was also added to the plate in triplicate.
The plate was then incubated for a further 10 h at 35 °C in 5% CO2. This incubation period was selected as the cytotoxicity assay indicated it was sublethal for most of the peptides and would maintain sufficient cell viability to extract intact RNA. Media was then aspirated from the cells, which were washed twice with Dulbecco’s phosphate buffered saline (DPBS) (Sigma-Aldrich).
Total RNA was extracted from each replicate of the peptide-treated and vehicle control cells (n = 3) using the RNeasy mini kit (Qiagen) with cell lysis directly in each well of the 12 well plate. Total RNA was quality assessed using the RNA nano 6000 kit on the Agilent Bioanalyzer with all samples displaying a RIN score between 5 and 9. In total, 24 RNA samples corresponding to three treatments per peptide (Saha-CATH1 to 7) and a vehicle control were submitted to Ramaciotti Centre for Genomics (The University of New South Wales) for sequencing. Illumina TruSeq mRNA libraries were prepared for all samples, which were sequenced as 2 × 150 bp paired-end reads across an SP flowcell on the NovaSeq6000.
Raw reads were quality assessed using FastQC v0.11.8[47], then quality and length trimmed using Trimmomatic v0.39[48] using default parameters. Trimmed reads for each treatment (n = 3) and the control (n = 3) were aligned to the Tasmanian devil reference genome v7.0 (NCBI: GCA_000189315.1[49] using STAR v2.7.8a[50]. Alignments for each treatment were summarized into gene counts using featureCounts in the subread package v1.5.1[51].
Gene counts were used as input for differential expression analysis in R[52]. Genes with less than 50 counts across all samples were removed from the analysis, as these were unlikely to be biologically relevant and lacked sufficient statistical power. Firstly, the data was normalized by trimmed mean of M values (TMM) using edgeR v3.32.1[53] to account for any composition bias between libraries and to give an effective library size for downstream analysis. Multidimensional scaling (MDS) was used to check for variation between treatments using limma v3.36.0[54]. Expression levels were then normalized using upper-quartile normalization in EDAseq v2.24.0[55] to account for differences in distribution between lanes, such as sequencing depth. Differential expression analysis was performed using voom in the limma v3.36.0 package.
(§1) Over-representation analysis of Biological Processes was conducted in clusterProfiler v3.18.1[57]. Statistical significance was adjusted for multiple comparisons using the Benjamini–Hochberg method, and terms were considered significant when p-adj < 0.05. To remove general terms, gene sets larger than 200 were removed, and the simplify function was used to remove redundant GO terms. Further pathway analysis was conducted in IPA (Qiagen)[58], using mammal as the species type and nervous system for the tissue/cell type.

DFT1 1426 cells [3] = assay: Ingenuity Pathway Analysis (canonical pathways) of DE genes in treated DFT1 1426 cells; type: cell-based, Tasmanian devil (Sarcophilus harrisii); conditions: DE genes of cells treated with 500 μg/mL for 10 h
Method: as §1

human cell line A549 = conditions: cited from earlier work; for cell survival of human cell line A549: 500 µg/mL
Method: Here we aimed to identify cathelicidin candidates for future development as anti-DFTD therapeutics. Four Tasmanian devil cathelicidins (Saha-CATH3, 4, 5 and 6) were toxic to DFT1 1426 cells at high concentrations: Saha-CATH3 at concentrations ≥ 62.5 µg/mL; Saha-CATH4 at 500 µg/mL; Saha-CATH5 at concentrations ≥ 125 µg/mL and Saha-CATH6 at concentrations ≥ 250 µg/mL. Previous studies have shown that two of these peptides (Saha-CATH3 and 4) are non-toxic to human cell line A549[44]. The other two (Saha-CATH5 and 6) reduced cell viability at high concentrations (500 µg/mL), resulting in 42% and 5 ...

human red blood cells = conditions: human red blood cells; cited from earlier work
Source text: Cathelicidins have been isolated from many vertebrate taxa[34]–[37]. However, they have undergone gene expansion in marsupials due to the need for additional protection of immunologically naïve young during development in the pouch. […] During development within the pouch, young are exposed to diverse microbial flora, some of which are pathogenic. This has likely encouraged the lineage-specific expansion of cathelicidins in marsupials, resulting in mult ...

[4] = pre-replication complex, RNAseq
[5] = 500 μg/mL, 36 h, DFT1 1426 cells

Sequence	effect on cell viability (in words) (DFT1 1426 cells [1]; DFT1 1426 cells)	percentage of DE genes (DFT1 1426 cells [2])	concentration toxic to DFT1 1426 cells (DFT1 1426 cells [1]) [µg/mL]	Fold change, gene CCNE1 (DFT1 1426 cells [2]; G1-S phase transition, RNAseq)	Fold change, gene CCNE2 (DFT1 1426 cells [2]; G1-S phase transition, RNAseq)	Fold change, gene IL6R (DFT1 1426 cells [2]; cytokine receptor, RNAseq)	Fold change, gene IL6 (DFT1 1426 cells [2]; RNAseq)	Fold change, gene MYD88 (DFT1 1426 cells [2]; RNAseq)	Fold change, gene CDC6 (DFT1 1426 cells [2]; [4])	Fold change, gene ORC1 (DFT1 1426 cells [2]; [4])	Fold change, gene RUNX1 (DFT1 1426 cells [2]; RNAseq)	IPA z-score, Th17 activation pathway (DFT1 1426 cells [3])	IPA z-score, cell cycle control of chromosomal replication (DFT1 1426 cells [3])	decrease in cell viability compared to the growth control (DFT1 1426 cells [1]; [5])	cell viability (% of untreated growth control) (DFT1 1426 cells [1]) [%]	cell survival of human cell line A549 (human cell line A549) [%]	concentration at which moderately haemolytic (human red blood cells)	further results
GIKHILFMAKTKLPRATCTAEIKENCDRKK [Saha-CATH1, Tasmanian devil cathelicidin mature peptide, synthesized by ChinaPeptides Co. Ltd to 95% purity]	did not reduce cell viability	less than 1%																
KREDFLDQIIRDFRNFIYQKYRRLRDEFRKLRDILSG [Saha-CATH4, Tasmanian devil cathelicidin mature peptide, synthesized by ChinaPeptides Co. Ltd to 95% purity]		18.75%	500	0.44	0.31	5.25	3.73	4.15	0.29	0.46	2.43	3.317	-3.638					Fold change, gene CCND3 (DFT1 1426 cells [2]; G1-S phase transition, RNAseq): 0.35; Fold change, gene E2F2 (DFT1 1426 cells [2]; cyclin transcription factor, RNAseq): 0.28; Fold change, gene CDC7 (DFT1 1426 cells [2]; [4]): 0.38; IPA z-score, Cyclins and Cell Cycle Regulation (DFT1 1426 cells [3]): -3.317; toxicity to human cell line A549 (in words) (human cell line A549): non-toxic
KRIGLGGLIGRILDRLRRLG [Saha-CATH5]		74.05%	≥ 125	0.37	0.30				0.39	0.54			-3.780	more than 50%	0	42	above 250 μg/mL	cytotoxic concentration (cell viability reduced by more than 50%) (DFT1 1426 cells [1]; 36 h): ≥ 125 µg/mL; Fold change (FC), gene ERBB3 (DFT1 1426 cells [2]; RNAseq): 0.34; Fold change, gene CCND1 (DFT1 1426 cells [2]; G1-S phase transition, RNAseq): 0.52; Fold change, gene CDC45 (DFT1 1426 cells [2]; [4]): 0.42; IPA z-score, ERBB2-ERBB3 (DFT1 1426 cells [3]): -4.439; IPA z-score, ERBB4 signaling (DFT1 1426 cells [3]): -5.425; IPA z-score, ERBB signaling (DFT1 1426 cells [3]): -6.068; IPA z-score, Hippo signalling (DFT1 1426 cells [3]): 0.898
KRIRFFERIRDRLRDLGNRIKNRIRDFFS [Saha-CATH6]		15.56%	≥ 250			1.70	11.14	1.78			1.61	2.53		more than 50%	0	59	above 250 μg/mL	incubation period required before exhibiting a similar level of toxicity to Saha-CATH5 (DFT1 1426 cells [1]; 500 μg/mL, DFT1 1426 cells): 18 h; cytotoxic concentration (cell viability reduced by more than 50%) (DFT1 1426 cells [1]; 18 h): ≥ 250 µg/mL; Fold change (FC), ATF3 (DFT1 1426 cells [2]; RNAseq): 5.02; Fold change (FC), CHOP (DDIT3) (DFT1 1426 cells [2]; RNAseq): 1.91; Fold change (FC), GADD34 (PPP1R15A) (DFT1 1426 cells [2]; RNAseq): 2.14; Fold change, gene IL1R1 (DFT1 1426 cells [2]; cytokine receptor, RNAseq): 2.29; Fold change, gene IL21R (DFT1 1426 cells [2]; cytokine receptor, RNAseq): 1.58; IPA z-score, EIF2 signaling (DFT1 1426 cells [3]): 4.352
STILEDPGKIRERRDIGEEPIQKKQKMYRDQMQ [Saha-CATH7, Tasmanian devil cathelicidin mature peptide, synthesized by ChinaPeptides Co. Ltd to 95% purity]	did not reduce cell viability	less than 1%																number of differentially expressed (DE) genes (DFT1 1426 cells [2]; out of a total of 15,548 genes): 0
TFKRKNGSRKNGHRPGGYSLIALGNKKVLKAPYMESI [Saha-CATH2, Tasmanian devil cathelicidin mature peptide, synthesized by ChinaPeptides Co. Ltd to 95% purity]	did not reduce cell viability	less than 1%																
